# Laboratory results taken from US9169241B2, “Quinolinyloxyphenylsulfonamides” (Max-Planck-Gesellschaft Zur Forderung der Wissenschaften …, priority 2009, dated 2015).
# Read-outs that look alike come from different tables or passages of the source.
# Key:
# [1] = test system: Hs578T; assay: Cell vitality assay (ATP assay, CellTiter-Glo); format: cell-based; conditions: Homo sapiens, Hs-578T, 72 h
# Procedure, shortened: (§1)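 1000 cells/well incubated 72 h with compound at 12.5 down to 0.195 μM (twofold steps) or DMSO control. Viability measured as cellular ATP by CellTiter-Glo luminescence; IC50 taken as the concentration giving 50% of the DMSO-control ATP level.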
# [2] = test system: SF126; assay: Cell vitality assay (ATP assay, CellTiter-Glo); format: cell-based; conditions: Homo sapiens, SF-126; SF126, 72 h; Table IIa; read-out: IC50 ATP-Assay after 72 h SF126
# Procedure, shortened: as §1
# [3] = test system: U118; assay: Cell vitality assay (ATP assay, CellTiter-Glo); format: cell-based; conditions: U118, 72 h; Table IIa; read-out: IC50 ATP-Assay after 72 h U118
# Procedure, shortened: as §1
# [4] = test system: indicated cell line; assay: Wound healing migration assay (Table IV); format: cell-based; conditions: compounds at 12.5, 6.25, 3.125 μM, 48 h-72 h
# Procedure, shortened: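 Cells seeded at 150000/24 well, grown to monolayer overnight, scratched with a pipette tip, then treated with compound at 12.5, 6.25 or 3.125 μM versus DMSO. Stopped by crystal violet fixation at 48-72 h once control wounds closed; IC50 taken as 50% wound size between t0 and t48 or t72.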
# [5] = test system: Hs578T; assay: Matrigel outgrowth assay/branching assay; format: cell-based; conditions: Homo sapiens, Hs-578T; HS578T cell line; Table Ib; read-out: Total branching inhibition in Matrigel HS578T
# Procedure, shortened: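 Cells (5000/well) were seeded onto polymerized 3 mg/ml Matrigel with compound at 3.125, 1.56 or 0.78 μM, or DMSO. Imaging by inverted microscopy at 48, 72 and 96 h scored invasive branching. Only concentrations giving total branching inhibition counted as positive.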
# [6] = HS578T cell line, Table Ib, read-out: IC50 ATP-Assay HS578T after 72 h
# [7] = Hs578T, Table IIa, read-out: IC50 ATP-Assay after 72 h Hs578T
# [8] = Homo sapiens, A 172, A172 cells, read-out: IC50 Wound healing Assay A172
# [9] = Homo sapiens, SF-126, SF126 cells, read-out: IC50 Wound healing Assay SF126
# [10] = Homo sapiens, C8161 cells, read-out: IC50 Wound healing Assay C8161
# [11] = SF763 cells, read-out: IC50 Wound healing Assay SF763
# [12] = U118 cells, read-out: IC50 Wound healing Assay U118
SMILES,"IC50 [1, 6] [µM]","IC50 [1, 7] [µM]",IC50 [2] [µM],IC50 [3] [µM],"IC50 [4, 8] [µM]","IC50 [4, 9] [µM]","IC50 [4, 10] [µM]","IC50 [4, 11] [µM]","IC50 [4, 12] [µM]",IC50 [5] [µM],melting point [°C]
"COc1cc2c(Oc3ccc(NS(=O)(=O)c4cccc(-c5ccccc5)c4)cc3F)ccnc2cc1OCCCN1CCCCC1 [Example 8, Biphenyl-3-sulfonic acid {3-fluoro-4-[6-methoxy-7-(3-piperidin-1-yl-propoxy)-quinolin-4-loxy]-phenyl}-amide]",12.5 to 50,12.5 to 50,≤ 12.5,≤ 12.5,≤ 12.5,≤ 12.5,12.5 to 50,≤ 12.5,≤ 12.5,≤ 10,113 to 115
"COc1cc2c(Oc3ccc(NS(=O)(=O)c4cccc(Oc5ccccc5)c4)cc3F)ccnc2cc1OCCCN1CCCCC1 [Example 10, N-{3-Fluoro-4-[6-methoxy-7-(3-piperidin-1-yl-propoxy)-quinolin-4-yloxy]-phenyl}-3-phenoxy-benzenesulfonamide]",12.5 to 50,12.5 to 50,≤ 12.5,≤ 12.5,≤ 12.5,≤ 12.5,≤ 12.5,≤ 12.5,≤ 12.5,≤ 10,146 to 147
"COc1cc2c(Oc3ccc(NS(=O)(=O)c4c(F)cccc4F)cc3F)ccnc2cc1OCCCN1CCCCC1 [Example 11, 2,6-Difluoro-N-{3-fluoro-4-[6-methoxy-7-(3-piperidin-1-yl-propoxy)-quinolin-4-yloxy]-phenyl}-benzenesulfonamide]",≤ 12.5,,12.5 to 50,12.5 to 50,12.5 to 50,≤ 12.5,,,12.5 to 50,10 to 25,242 to 244
"COc1cc2c(Oc3ccc(NS(=O)(=O)c4ccccc4OC(F)(F)F)cc3F)ccnc2cc1OCCCN1CCN(C)CC1 [Example 25, N-(3-Fluoro-4-{6-methoxy-7-[3-(4-methyl-piperazin-1-yl)-propoxy]-quinolin-4-yloxy}-phenyl)-2-trifluoromethoxy-benzenesulfonamide]",,≤ 12.5,≤ 12.5,≤ 12.5,,,12.5 to 50,12.5 to 50,,≤ 10,86 to 90
"COc1cc2c(Oc3ccc(NS(=O)(=O)c4ccccc4Cl)cc3F)ccnc2cc1OCCCN1CCN(C)CC1 [Example 29, 2-Chloro-N-(3-fluoro-4-{6-methoxy-7-[3-(4-methyl-piperazin-1-yl)-propoxy]-quinolin-4-yloxy}-phenyl)-benzenesulfonamide]",,12.5 to 50,≤ 12.5,≤ 12.5,,,≤ 12.5,≤ 12.5,,≤ 10,96 to 98
"COc1cc2c(Oc3ccc(NS(=O)(=O)c4c(Cl)cccc4Cl)cc3F)ccnc2cc1OCCCN1CCN(C)CC1 [Example 32, 2,6-Dichloro-N-(3-fluoro-4-{6-methoxy-7-[3-(4-methyl-piperazin-1-yl)-propoxy]-quinolin-4-yloxy}-phenyl)-benzenesulfonamide]",,≤ 12.5,≤ 12.5,≤ 12.5,,,≤ 12.5,≤ 12.5,,≤ 10,113 to 116
"COc1cc2c(Oc3ccc(NS(=O)(=O)c4ccccc4OC)cc3F)ccnc2cc1OCCCN1CCN(C)CC1 [Example 33, N-(3-Fluoro-4-{6-methoxy-7-[3-(4-methyl-piperazin-1-yl)-propoxy]-quinolin-4-yloxy}-phenyl)-2-methoxy-benzenesulfonamide]",,≤ 12.5,≤ 12.5,≤ 12.5,,,≤ 12.5,12.5 to 50,,≤ 10,168 to 170
"COc1cc2c(Oc3ccc(NS(=O)(=O)c4ccccc4Cl)cc3F)ccnc2cc1OCCCN1CCCC(C)C1 (stereo not drawn) [Example 38, 2-Chloro-N-(3-fluoro-4-{6-methoxy-7-[3-(3-methyl-piperidin-1-yl)-propoxy]-quinolin-4-yloxy}-phenyl)-benzenesulfonamide]",12.5 to 50,12.5 to 50,≤ 12.5,≤ 12.5,≤ 12.5,≤ 12.5,≤ 12.5,12.5 to 50,≤ 12.5,≤ 10,115 to 118
"COc1cc2c(Oc3ccc(NS(=O)(=O)c4ccccc4[N+](=O)[O-])cc3F)ccnc2cc1OCCCN1CCCC(C)C1 (stereo not drawn) [Example 40, N-(3-Fluoro-4-{6-methoxy-7-[3-(3-methyl-piperidin-1-yl)-propoxy]-quinolin-4-yloxy}-phenyl)-2-nitro-benzenesulfonamide]",≤ 12.5,,≤ 12.5,12.5 to 50,≤ 12.5,≤ 12.5,,,≤ 12.5,≤ 10,136 to 138
"COc1cc2c(Oc3ccc(NS(=O)(=O)c4cccc(C#N)c4)cc3F)ccnc2cc1OCCCN1CCCC(C)C1 (stereo not drawn) [Example 41, 3-Cyano-N-(3-fluoro-4-{6-methoxy-7-[3-(3-methyl-piperidin-1-yl)-propoxy]-quinolin-4-yloxy}-phenyl)-benzenesulfonamide]",,≤ 12.5,12.5 to 50,≤ 12.5,,,12.5 to 50,≤ 12.5,,≤ 10,125 to 127
"COc1cc2c(Oc3ccc(NS(=O)(=O)c4ccccc4OC(F)(F)F)cc3F)ccnc2cc1OCCCN1CCCC(C)C1 (stereo not drawn) [Example 45, N-(3-Fluoro-4-{6-methoxy-7-[3-(3-methyl-piperidin-1-yl)-propoxy]-quinolin-4-yloxy}-phenyl)-2-trifluoromethoxy-benzenesulfonamide]",≤ 12.5,,≤ 12.5,≤ 12.5,≤ 12.5,≤ 12.5,,,≤ 12.5,≤ 10,128 to 130
"COc1cc2c(Oc3ccc(NS(=O)(=O)c4ccc(F)cc4F)cc3F)ccnc2cc1OCCCN1CCCC(C)C1 (stereo not drawn) [Example 47, 2,4-Difluoro-N-(3-fluoro-4-{6-methoxy-7-[3-(3-methyl-piperidin-1-yl)-propoxy]-quinolin-4-yloxy}-phenyl)-benzenesulfonamide]",≤ 12.5,≤ 12.5,≤ 12.5,≤ 12.5,≤ 12.5,≤ 12.5,≤ 12.5,≤ 12.5,≤ 12.5,≤ 10,118 to 120
"COc1cc2c(Oc3ccc(NS(=O)(=O)c4ccc(F)c(F)c4F)cc3F)ccnc2cc1OCCCN1CCCC(C)C1 (stereo not drawn) [Example 49, 2,3,4-Trifluoro-N-(3-fluoro-4-{6-methoxy-7-[3-(3-methyl-piperidin-1-yl)-propoxy]-quinolin-4-yloxy}-phenyl)-benzenesulfonamide]",≤ 12.5,,≤ 12.5,≤ 12.5,≤ 12.5,≤ 12.5,,,≤ 12.5,10 to 25,134 to 136
"COc1cc2c(Oc3ccc(NS(=O)(=O)c4c(Cl)cccc4Cl)cc3F)ccnc2cc1OCCCN1CCCC(C)C1 (stereo not drawn) [Example 51, 2,6-Dichloro-N-(3-fluoro-4-{6-methoxy-7-[3-(3-methyl-piperidin-1-yl)-propoxy]-quinolin-4-yloxy}-phenyl)-benzenesulfonamide]",≤ 12.5,,≤ 12.5,≤ 12.5,≤ 12.5,≤ 12.5,,,≤ 12.5,≤ 10,119 to 121
"COc1cc2c(Oc3ccc(NS(=O)(=O)c4cccc(Cl)c4F)cc3F)ccnc2cc1OCCCN1CCCC(C)C1 (stereo not drawn) [Example 54, 3-Chloro-2-fluoro-N-(3-fluoro-4-{6-methoxy-7-[3-(3-methyl-piperidin-1-yl)-propoxy]-quinolin-4-yloxy}-phenyl)-benzenesulfonamide]",≤ 12.5,,12.5 to 50,≤ 12.5,≤ 12.5,≤ 12.5,,,≤ 12.5,10 to 25,125 to 127
COc1cc2c(Oc3ccc(NS(=O)(=O)c4cc(C)ccc4F)cc3F)ccnc2cc1OCCCN1CCCC(C)C1 (stereo not drawn) [Example 55],12.5 to 50,12.5 to 50,≤ 12.5,12.5 to 50,,,12.5 to 50,12.5 to 50,,≤ 10,149 to 151
